How the values were obtained:
[1] = test system: barnyardgrass; assay: Test A pre-/postemergence greenhouse test; type: in vivo, Echinochloa crus-galli; settings: for Barnyardgrass plant response rating: 0 to 100 scale; for Plant response rating, Barnyardgrass: 0 to 100 scale where 0 is no effect and 100 is complete control
Procedure, shortened: (§1)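 Planting was into mixed loam soil and sand; preemergence treatment followed as a directed soil spray. Concurrently, emerged plants (one- to two-leaf, 2–10 cm) received postemergence applications of identically formulated compound (non-phytotoxic solvent, surfactant). After approximately ten days under greenhouse conditions, injury was judged by eye against untreated plants.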

[2] = test system: crabgrass; assay: Test A pre-/postemergence greenhouse test; type: in vivo, Digitaria sanguinalis; settings: for Crabgrass, Large plant response rating: 0 to 100 scale; for Plant response rating, Crabgrass, Large: 0 to 100 scale where 0 is no effect and 100 is complete control
Procedure, shortened: as §1

[3] = test system: velvetleaf; assay: Test A pre-/postemergence greenhouse test; type: in vivo, Abutilon theophrasti; settings: for Velvetleaf plant response rating: 0 to 100 scale; for Plant response rating, Velvetleaf: 0 to 100 scale where 0 is no effect and 100 is complete control
Procedure, shortened: as §1

[4] = test system: corn; assay: Test A pre-/postemergence greenhouse test; type: in vivo, Zea mays; settings: for Corn plant response rating: 0 to 100 scale; for Plant response rating, Corn: 0 to 100 scale where 0 is no effect and 100 is complete control
Procedure, shortened: as §1

[5] = test system: green foxtail; assay: Test C pre-/postemergence test; type: in vivo, Setaria viridis; settings: Preemergence; for Foxtail, Green plant response rating: 62 g ai/ha, scale 0 to 100; for Plant response rating, Foxtail, Green: 31 g ai/ha, scale 0 to 100 (0 no effect, 100 complete control); for Plant response rating (0 to 100), Foxtail, Green: 250 g ai/ha
Procedure, shortened: (§2)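 Compounds in a non-phytotoxic solvent with surfactant applied preemergence to seeded pots and, at the same time, postemergence to plants 2–18 cm tall (1- to 4-leaf stage). Paddy tests: pots flooded to 3 cm, compound applied into the water, depth held throughout.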

[6] = test system: Italian ryegrass; assay: Test C pre-/postemergence test; type: in vivo, Lolium multiflorum; settings: Preemergence; for Ryegrass, Italian plant response rating: 62 g ai/ha, scale 0 to 100; for Plant response rating, Ryegrass, Italian: 31 g ai/ha, scale 0 to 100 (0 no effect, 100 complete control)
Procedure, shortened: as §2

[7] = test system: bermudagrass; assay: Test C pre-/postemergence test; type: in vivo, Cynodon dactylon; settings: for Plant response rating, Bermudagrass: 31 g ai/ha; for Plant response rating (0 to 100), Bermudagrass: 250 g ai/ha
Procedure, shortened: as §2

[8] = test system: corn; assay: Test C pre-/postemergence test; type: in vivo, Zea mays; settings: for Plant response rating, Corn: 31 g ai/ha, scale 0 to 100 (0 no effect, 100 complete control); for Plant response rating (0 to 100), Corn: 250 g ai/ha
Procedure, shortened: as §2

[9] = test system: crabgrass; assay: Test C pre-/postemergence test; type: in vivo, Digitaria sanguinalis; settings: Preemergence; for Crabgrass, Large plant response rating: 62 g ai/ha, scale 0 to 100; for Plant response rating, Crabgrass, Large: 31 g ai/ha, scale 0 to 100 (0 no effect, 100 complete control); for Plant response rating (0 to 100), Crabgrass, Large: 250 g ai/ha
Procedure, shortened: as §2

[10] = test system: Goosegrass; assay: Test C pre-/postemergence test; type: in vivo, Eleusin indica; settings: Preemergence; for Goosegrass plant response rating: 62 g ai/ha, scale 0 to 100; for Plant response rating, Goosegrass: 31 g ai/ha, scale 0 to 100 (0 no effect, 100 complete control); for Plant response rating (0 to 100), Goosegrass: 250 g ai/ha
Procedure, shortened: as §2

[11] = test system: johnsongrass; assay: Test C pre-/postemergence test; type: in vivo, Sorghum halepense; settings: Preemergence; for Johnsongrass plant response rating: 62 g ai/ha, scale 0 to 100; for Plant response rating, Johnsongrass: 31 g ai/ha, scale 0 to 100 (0 no effect, 100 complete control); for Plant response rating (0 to 100), Johnsongrass: 250 g ai/ha
Procedure, shortened: as §2

[12] = test system: yellow nutsedge; assay: Test C pre-/postemergence test; type: in vivo, Cyperus esculentus; settings: Preemergence; for Nutsedge, Yellow plant response rating: 62 g ai/ha, scale 0 to 100; for Plant response rating, Nutsedge, Yellow: 31 g ai/ha, scale 0 to 100 (0 no effect, 100 complete control)
Procedure, shortened: as §2

[13] = test system: pigweed; assay: Test C pre-/postemergence test; type: in vivo, Amaranthus retroflexus; settings: Preemergence; for Pigweed plant response rating: 62 g ai/ha, scale 0 to 100; for Plant response rating, Pigweed: 31 g ai/ha, scale 0 to 100 (0 no effect, 100 complete control)
Procedure, shortened: as §2

[14] = test system: soybean; assay: Test C pre-/postemergence test; type: in vivo, Glycine max; settings: Preemergence; for Soybean plant response rating: 62 g ai/ha, scale 0 to 100; for Plant response rating, Soybean: 31 g ai/ha, scale 0 to 100 (0 no effect, 100 complete control)
Procedure, shortened: as §2

[15] = test system: umbrella sedge; assay: Test C flooded paddy test; type: in vivo, Cyperus difformis; settings: Flood
Procedure, shortened: (§3)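 Test compounds are applied straight into paddy water held 3 cm above the soil surface, with that flood maintained for the whole test. After 13 to 15 days in the greenhouse, each species is scored visually relative to controls.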

[16] = test system: duck salad; assay: Test C flooded paddy test; type: in vivo, Heteranthera limosa; settings: Flood
Procedure, shortened: as §3

[17] = test system: barnyardgrass; assay: Test C flooded paddy test; type: in vivo, Echinochloa crus-galli; settings: Flood
Procedure, shortened: as §3

[18] = Postemergence, 125 g ai/ha, 0 is no effect, 100 is complete control
[19] = Postemergence, 500 g ai/ha, 0 is no effect, 100 is complete control
[20] = Preemergence, 125 g ai/ha, 0 no effect, 100 complete control
[21] = 62 g ai/ha, Preemergence, scale 0 to 100 (0 no effect, 100 complete control)
[22] = Preemergence, scale 0 to 100 (0 no effect, 100 complete control)
[23] = preemergence, 125 g ai/ha, scale 0 (no effect) to 100 (complete control)
[24] = 62 g ai/ha, Preemergence, scale 0 to 100
[25] = 31 g ai/ha, scale 0 to 100 (0 no effect, 100 complete control)
[26] = 62 g ai/ha, scale 0 to 100, 0 no effect, 100 complete control, 13 to 15 days
[27] = 125 g ai/ha, scale 0 to 100, 0 no effect, 100 complete control, 13 to 15 days
[28] = 250 g ai/ha, scale 0 to 100, 0 no effect, 100 complete control, 13 to 15 days
[29] = 250 g ai/ha, scale 0 to 100 (0 no effect, 100 complete control)

Cn1nc(C(F)(F)F)c(CS(=O)(=O)c2cc(C(C)(C)C)cc[n+]2[O-])c1OC(F)F [Compound 25]
40: Barnyardgrass plant response rating [1, 18] | Plant response rating, Ducksalad [16, 26]
98: Foxtail, Green plant response rating [5] | Johnsongrass plant response rating [11]
50: Barnyardgrass plant response rating [1, 19] | Velvetleaf plant response rating [3, 19]
70: Crabgrass, Large plant response rating [2, 19] | Plant response rating, Johnsongrass [11]
85: Plant response rating, Sedge, Umbrella [15, 28]
90: Barnyardgrass plant response rating [1, 20] | Crabgrass, Large plant response rating [2, 20]
80: Plant response rating, Foxtail, Green [5] | Nutsedge, Yellow plant response rating [12] | Plant response rating, Sedge, Umbrella [15, 26] | Plant response rating, Sedge, Umbrella [15, 27] | Plant response rating, Ducksalad [16, 29] | Plant response rating, Barnyardgrass [17, 29]
10: Crabgrass, Large plant response rating [2, 18]
100: Plant response rating, Barnyardgrass ([1]; Preemergence, 500 g ai/ha) | Plant response rating, Crabgrass, Large ([2]; Preemergence, 500 g ai/ha) | Plant response rating, Velvetleaf ([3]; Preemergence, 500 g ai/ha) | Plant response rating (0 to 100), Foxtail, Green [5] | Bermudagrass plant response rating [7, 21] | Plant response rating (0 to 100), Bermudagrass ([7]; Preemergence) | Bermudagrass plant response rating [7, 23] | Crabgrass, Large plant response rating [9] | Plant response rating, Crabgrass, Large [9] | Plant response rating (0 to 100), Crabgrass, Large [9] | Goosegrass plant response rating [10] | Plant response rating, Goosegrass [10] | Plant response rating (0 to 100), Goosegrass [10] | Plant response rating (0 to 100), Johnsongrass [11] | Pigweed plant response rating [13] | Plant response rating, Pigweed [13]
60: Velvetleaf plant response rating [3, 20] | Plant response rating, Corn ([4]; Preemergence, 500 g ai/ha) | Plant response rating (0 to 100), Corn ([8]; Preemergence) | Corn plant response rating [8, 23] | Plant response rating, Ducksalad [16, 27]
75: Plant response rating, Bermudagrass [7, 22]
0: Corn plant response rating [4, 18] | Corn plant response rating [4, 20] | Ryegrass, Italian plant response rating [6] | Plant response rating, Ryegrass, Italian [6] | Plant response rating, Corn ([8]; Preemergence) | Plant response rating, Nutsedge, Yellow [12] | Plant response rating, Soybean [14] | Plant response rating, Sedge, Umbrella [15, 25] | Plant response rating, Ducksalad [16, 25] | Plant response rating, Barnyardgrass [17, 25] | Plant response rating, Barnyardgrass [17, 26]
20: Corn plant response rating [4, 19] | Corn plant response rating [8, 24] | Soybean plant response rating [14]
30: Velvetleaf plant response rating [3, 18] | Plant response rating, Barnyardgrass [17, 27]

Cn1nc(C(F)(F)F)c(C[S+]([O-])c2cc(C(C)(C)C)cc[n+]2[O-])c1OC(F)F (racemic) [Compound 24]
85: Bermudagrass plant response rating [7, 21] | Plant response rating, Goosegrass [10] | Soybean plant response rating [14] | Plant response rating, Sedge, Umbrella [15, 26] | Plant response rating, Ducksalad [16, 29]
35: Plant response rating, Barnyardgrass [17, 29]
95: Plant response rating, Sedge, Umbrella [15, 27] | Plant response rating, Sedge, Umbrella [15, 28]
0: Crabgrass, Large plant response rating [2, 18] | Corn plant response rating [4, 18] | Corn plant response rating [4, 20] | Ryegrass, Italian plant response rating [6] | Plant response rating, Ryegrass, Italian [6] | Plant response rating, Corn ([8]; Preemergence) | Plant response rating, Nutsedge, Yellow [12] | Plant response rating, Soybean [14] | Plant response rating, Ducksalad [16, 25] | Plant response rating, Barnyardgrass [17, 25]
50: Barnyardgrass plant response rating [1, 19] | Corn plant response rating [8, 24] | Plant response rating, Johnsongrass [11]
60: Barnyardgrass plant response rating [1, 20] | Crabgrass, Large plant response rating [2, 19] | Velvetleaf plant response rating [3, 19] | Plant response rating, Sedge, Umbrella [15, 25] | Plant response rating, Ducksalad [16, 26]
30: Barnyardgrass plant response rating [1, 18] | Plant response rating, Barnyardgrass [17, 26] | Plant response rating, Barnyardgrass [17, 27]
70: Velvetleaf plant response rating [3, 20] | Foxtail, Green plant response rating [5] | Nutsedge, Yellow plant response rating [12]
80: Plant response rating, Ducksalad [16, 27]
10: Plant response rating, Foxtail, Green [5]
100: Plant response rating, Barnyardgrass ([1]; Preemergence, 500 g ai/ha) | Plant response rating, Crabgrass, Large ([2]; Preemergence, 500 g ai/ha) | Plant response rating, Velvetleaf ([3]; Preemergence, 500 g ai/ha) | Plant response rating (0 to 100), Foxtail, Green [5] | Plant response rating (0 to 100), Bermudagrass ([7]; Preemergence) | Bermudagrass plant response rating [7, 23] | Crabgrass, Large plant response rating [9] | Plant response rating, Crabgrass, Large [9] | Plant response rating (0 to 100), Crabgrass, Large [9] | Goosegrass plant response rating [10] | Plant response rating (0 to 100), Goosegrass [10] | Plant response rating (0 to 100), Johnsongrass [11] | Pigweed plant response rating [13] | Plant response rating, Pigweed [13]
90: Crabgrass, Large plant response rating [2, 20] | Plant response rating (0 to 100), Corn ([8]; Preemergence) | Corn plant response rating [8, 23] | Johnsongrass plant response rating [11]
75: Plant response rating, Bermudagrass [7, 22]
40: Velvetleaf plant response rating [3, 18] | Corn plant response rating [4, 19] | Plant response rating, Corn ([4]; Preemergence, 500 g ai/ha)

Source: patent US20100298141A1, “SUBSTITUTED PYRIDINE N-OXIDE HERBICIDES” (E. I. DU PONT DE NEMOURS AND COMPANY, priority 2007, published 2010)
